Measurements: article PMC12238723, “Phase I Clinical Trial of CVL218, a Novel PARP1/2 Inhibitor, in Patients with Advanced Solid Tumors” (MedComm, 2025)

System: patients with advanced solid tumors
Assay: Treatment-related adverse events (CTCAE v5.0), phase I dose escalation
Assay type: in vivo
Description: This study was a single‐arm, dose‐escalation phase I trial conducted in Sun Yat‐sen University Cancer Center in China. This study assessed CVL218 in patients with histologically or cytologically confirmed advanced solid tumors who were in PD after standard therapeutic regimens or lacked standard treatment options. Inclusion criteria included: age 18–75 years; with at least one measurable and evaluable target lesion per Response Evaluation Criteria in Solid Tumors 1.1 (RECIST 1.1); ECOG performance status of 0 or 1; adequate hematological, renal, cardiac, and hepatic functions and a life expectancy ≥12 weeks. Key exclusion criteria included prior usage of PARP inhibitors; allergic to the research drug or its components; with active, unstable systemic diseases or active, uncontrolled infection; a history of other malignancies within 5 years, and pregnant or lactating women.
CVL218 was administered orally, and this dose‐escalation trial included nine dose levels: 100 mg QD (50 mg BID), 200 mg QD (100 mg BID), 400 mg QD (200 mg BID), 700 mg QD (350 mg BID), 1000 mg QD (500 mg BID), 1200 mg QD (600 mg BID), 1400 mg QD (700 mg BID), 1700 mg QD (850 mg BID), and 2000 mg QD (1000 mg BID). Patients enrolled in the study received a single oral dose on the first day, followed by continuous multiple dosing (twice a day taking 12 h apart) after 72 h, with the treatment cycle lasting 4 weeks. The period during which patients received a single dose is designated as cycle 0 (C0), lasting 72 h. After this period, patients begin multiple dosing, referred to as cycle 1 (C1). An initial accelerated titration design was employed for the three lowest dose groups, and the “3+3” design was applied starting with the 300 mg BID cohort.
The primary objectives were to assess safety and tolerability as well as to determine the MTD, DLT, and dose recommended for further study. DLT was defined as any of the following events occurring during cycle 0 (including 72 h wash‐out period after a single dose) and cycle 1 per Common Terminology Criteria for Adverse Events (CTCAE) version 5.0: grade 4 anemia; grade 4 neutropenia; grade 3 neutropenia with fever ≥38.5°C; grade 4 thrombocytopenia; grade 3 thrombocytopenia associated with bleeding; grade ≥2 neurotoxicity; any other grade ≥3 nonhematological toxicities (excluding alopecia). The secondary objectives were to assess the PK and preliminary efficacy of CVL218.
Subjects who received at least one dose of CVL218 with postadministration safety records were included in safety analysis set. Subjects who received at least one dose of CVL218 with at least one evaluable PK parameter were included in PK analysis set. Per‐protocol set were used for efficacy analysis. Descriptive statistics of safety were presented per CTCAE v5.0. The PK parameters T max and T 1/2 were shown as the median (min, max) and mean ± SD, respectively. A two‐sided p < 0.05 was considered to indicate statistical significance. Statistical analysis was performed by using GraphPad prism 8.0.2 and R‐4.3.3.

CNCc1ccc(-c2cc3cc(F)cc(C(N)=O)c3o2)cc1.Cl [CVL218]
0 n (%): Infusion site pain (50 mg BID, ALL) | WBC count increased (50 mg BID, ALL) | ALT increased (50 mg BID, ≥G3) | AST increased (50 mg BID, ≥G3) | Abdominal distension (50 mg BID, ≥G3) | Abdominal pain (50 mg BID, ≥G3) | Abdominal pain upper (50 mg BID, ≥G3) | Amylase increased (50 mg BID, ≥G3) | Anemia (50 mg BID, ≥G3) | Any AE related to study drug (50 mg BID, ≥G3) | Asthenia (50 mg BID, ≥G3) | Blood creatinine increased (50 mg BID, ≥G3) | Blood system disorders (50 mg BID, ≥G3) | Blood triglycerides increased (50 mg BID, ≥G3) | Blood urea increased (50 mg BID, ≥G3) | Cardiac disorders (50 mg BID, ≥G3) | Chest discomfort (50 mg BID, ≥G3) | Constipation (50 mg BID, ≥G3) | Decreased appetite (50 mg BID, ≥G3) | Diarrhea (50 mg BID, ≥G3) | Dizziness (50 mg BID, ≥G3) | Erectile dysfunction (50 mg BID, ≥G3) | Gastrointestinal disorders (50 mg BID, ≥G3) | General disorders (50 mg BID, ≥G3) | Gingival bleeding (50 mg BID, ≥G3) | Granulocyte count increased (50 mg BID, ≥G3) | Headache (50 mg BID, ≥G3) | Hypoalbuminemia (50 mg BID, ≥G3) | Infusion site pain (50 mg BID, ≥G3) | Laboratory test disorders (50 mg BID, ≥G3) | Limb discomfort (50 mg BID, ≥G3) | Lipase increased (50 mg BID, ≥G3) | Metabolic disorders (50 mg BID, ≥G3) | Musculoskeletal discomfort (50 mg BID, ≥G3) | Musculoskeletal disorders (50 mg BID, ≥G3) | Nausea (50 mg BID, ≥G3) | Nervous system disorders (50 mg BID, ≥G3) | Neutrophil count decreased (50 mg BID, ≥G3) | Neutrophil count increased (50 mg BID, ≥G3) | Palpitations (50 mg BID, ≥G3) | Protein urine present (50 mg BID, ≥G3) | Proteinuria (50 mg BID, ≥G3) | Rash (50 mg BID, ≥G3) | Renal & urinary disorders (50 mg BID, ≥G3) | Renal failure (50 mg BID, ≥G3) | Reproductive disorders (50 mg BID, ≥G3) | Skin disorders (50 mg BID, ≥G3) | Urinary occult blood positive (50 mg BID, ≥G3) | Vomiting (50 mg BID, ≥G3) | WBC count decreased (50 mg BID, ≥G3) | WBC count increased (50 mg BID, ≥G3) | Infusion site pain (100 mg BID, ALL) | WBC count increased (100 mg BID, ALL) | ALT increased (100 mg BID, ≥G3) | AST increased (100 mg BID, ≥G3) | Abdominal distension (100 mg BID, ≥G3) | Abdominal pain (100 mg BID, ≥G3) | Abdominal pain upper (100 mg BID, ≥G3) | Amylase increased (100 mg BID, ≥G3) | Anemia (100 mg BID, ≥G3) | Any AE related to study drug (100 mg BID, ≥G3) | Asthenia (100 mg BID, ≥G3) | Blood creatinine increased (100 mg BID, ≥G3) | Blood system disorders (100 mg BID, ≥G3) | Blood triglycerides increased (100 mg BID, ≥G3) | Blood urea increased (100 mg BID, ≥G3) | Cardiac disorders (100 mg BID, ≥G3) | Chest discomfort (100 mg BID, ≥G3) | Constipation (100 mg BID, ≥G3) | Decreased appetite (100 mg BID, ≥G3) | Diarrhea (100 mg BID, ≥G3) | Dizziness (100 mg BID, ≥G3) | Erectile dysfunction (100 mg BID, ≥G3) | Gastrointestinal disorders (100 mg BID, ≥G3) | General disorders (100 mg BID, ≥G3) | Gingival bleeding (100 mg BID, ≥G3) | Granulocyte count increased (100 mg BID, ≥G3) | Headache (100 mg BID, ≥G3) | Hypoalbuminemia (100 mg BID, ≥G3) | Infusion site pain (100 mg BID, ≥G3) | Laboratory test disorders (100 mg BID, ≥G3) | Limb discomfort (100 mg BID, ≥G3) | Lipase increased (100 mg BID, ≥G3) | Metabolic disorders (100 mg BID, ≥G3) | Musculoskeletal discomfort (100 mg BID, ≥G3) | Musculoskeletal disorders (100 mg BID, ≥G3) | Nausea (100 mg BID, ≥G3) | Nervous system disorders (100 mg BID, ≥G3) | Neutrophil count decreased (100 mg BID, ≥G3) | Neutrophil count increased (100 mg BID, ≥G3) | Palpitations (100 mg BID, ≥G3) | Protein urine present (100 mg BID, ≥G3) | Proteinuria (100 mg BID, ≥G3) | Rash (100 mg BID, ≥G3) | Renal & urinary disorders (100 mg BID, ≥G3) | Renal failure (100 mg BID, ≥G3) | Reproductive disorders (100 mg BID, ≥G3) | Skin disorders (100 mg BID, ≥G3) | Urinary occult blood positive (100 mg BID, ≥G3) | Vomiting (100 mg BID, ≥G3) | WBC count decreased (100 mg BID, ≥G3) | WBC count increased (100 mg BID, ≥G3) | WBC count increased (200 mg BID, ALL) | ALT increased (200 mg BID, ≥G3) | AST increased (200 mg BID, ≥G3) | Abdominal distension (200 mg BID, ≥G3) | Abdominal pain (200 mg BID, ≥G3) | Abdominal pain upper (200 mg BID, ≥G3) | Amylase increased (200 mg BID, ≥G3) | Anemia (200 mg BID, ≥G3) | Any AE related to study drug (200 mg BID, ≥G3) | Asthenia (200 mg BID, ≥G3) | Blood creatinine increased (200 mg BID, ≥G3) | Blood system disorders (200 mg BID, ≥G3) | Blood triglycerides increased (200 mg BID, ≥G3) | Blood urea increased (200 mg BID, ≥G3) | Cardiac disorders (200 mg BID, ≥G3) | Chest discomfort (200 mg BID, ≥G3) | Constipation (200 mg BID, ≥G3) | Decreased appetite (200 mg BID, ≥G3) | Diarrhea (200 mg BID, ≥G3) | Dizziness (200 mg BID, ≥G3) | Erectile dysfunction (200 mg BID, ≥G3) | Gastrointestinal disorders (200 mg BID, ≥G3) | General disorders (200 mg BID, ≥G3) | Gingival bleeding (200 mg BID, ≥G3) | Granulocyte count increased (200 mg BID, ≥G3)
1 (100) n (%): Infusion site pain (200 mg BID, ALL)
